From patent US7851436B2, “Inhibition of migration and induction of cell death by the type II collagen amino propeptides” (Washington University, priority 2007, dated 2010)
Entries after “also recorded” stand apart in the source; their conditions may differ.

Experiments:
[1] = test system: mouse osteoclast cells; test: Osteoclast viability (trypan blue exclusion); assay type: cell-based; conditions: 16 hours at 37° C.
Procedure: (§1) FIG. 10 depicts a graph showing mouse chondrogenic cells (ATDC5), mouse osteoblast cells, and mouse osteoclast cells treated with recombinant GST, PIIBNP or mPIIBNP proteins for 16 hours at 37° C. The cells were trypsinized and cell viability was assayed using a trypan blue exclusion based cell counting. PPIIBNP induced death in osteoclasts that resorb the bone, but not the osteoblasts that form bone.

[2] = test system: β1, α4, and α5 integrin; test: Cell surface labeling and GST pull-down with immunoblotting (other integrins); assay type: binding, human; conditions: b23: β1 only; b113: β1, α4 and α5
Procedure: Immunoblotting. Western blotting was performed as described (7). Blots were probed with the following primary antibodies: rabbit anti αV, α2, α3, α5, β1, β3, β5 integrin and goat anti actin (Saint Cruz), chicken anti PIIBNP antiserum, and mouse anti exon 2 antiserum.
Cell Surface labeling and GST Pull-down Assay. Ch-1 cells were incubated with EZ-link Sulfo-NHS-Biotin reagent for 30 mins. according to the product instruction (Sigma). After 3 washes with 0.1 M glycine in PBS, the cells were lysed with a lysis buffer described above. The lysate was incubated with glutathione derivatized agarose beads previously bound with GST, PIIANP, PIIBNP or mPIIBNP for 1 hr. at RT. […] The membrane was washed and incubated with antibodies and then incubated with a secondary antibody coupled to horseradish peroxidase. The antibody complex was visualized by enhanced chemiluminescence.

[3] = test system: mouse chondrogenic cells (ATDC5); test: Chondrogenic cell viability (trypan blue exclusion); assay type: cell-based; conditions: 16 hours at 37° C.
Procedure: as §1

[4] = test system: HUVEC cells; test: HUVEC cell death; assay type: cell-based, human
Procedure: FIG. 6 depicts photographs and graphs showing that PIIBNP inhibits angiogenesis. […] Quantification of tube formation was calculated based on branch points per field of view (FIG. 6C) for each treatment ranging from 0.1 μM to 10 μM of PIIBNP. […] GST (▴) and PIIANP (●) had no effect on the cells.
As a second test for angiogenesis, we tested the ability of PIIBNP to inhibit outgrowth of endogenous endothelial cells from freshly isolated rat aorta. […] In order to determine whether PIIBNP caused endothelial cell death, the number of HUVEC cells present after incubation with PIIBNP was determined (FIGS. 6E and 8). Tube formation was inhibited by 50% with 0.1 μM PIIBNP, with no cell death. […] Consequently, PIIBNP can inhibit angiogenesis in a cell line and in endogenous endothelial cells mediated by integrins αVβ3 and αVβ5.

PIIBNP: Recombinant human Type IIB procollagen NH2-propeptide (exons 3-8, lacking exon 2), expressed as GST fusion protein
induction of osteoclast death ([1]; listed as PPIIBNP): induced death | induction of osteoclast death ([1]; listed as Type IIB propeptide): induced the death | reaction of integrin antibodies with material pulled out by PIIBNP [2]: did not react | induction of ATDC5 cell death [3]: did not lead to the mouse chondrogenic cell (ATDC5) death | HUVEC cell death ([4]; 0.1 μM): no cell death | HUVEC cell death ([4]; 60 hrs, 37° C., higher concentrations): cell death was induced; also recorded: caused cell death in a concentration-dependent manner
